Assay results from patent publication US20140336193A1, “POTENT NON-UREA INHIBITORS OF SOLUBLE EPOXIDE HYDROLASE” (priority 2012, published 2014).

How the values were obtained:
Human sEH [1] = biological target: T1, Human sEH (Homo sapiens, UniProt P34913); assay: Fluorescent assay with CMNPC substrate (Example 2); assay type: biochemical
T1 sequence (P34913 1-555): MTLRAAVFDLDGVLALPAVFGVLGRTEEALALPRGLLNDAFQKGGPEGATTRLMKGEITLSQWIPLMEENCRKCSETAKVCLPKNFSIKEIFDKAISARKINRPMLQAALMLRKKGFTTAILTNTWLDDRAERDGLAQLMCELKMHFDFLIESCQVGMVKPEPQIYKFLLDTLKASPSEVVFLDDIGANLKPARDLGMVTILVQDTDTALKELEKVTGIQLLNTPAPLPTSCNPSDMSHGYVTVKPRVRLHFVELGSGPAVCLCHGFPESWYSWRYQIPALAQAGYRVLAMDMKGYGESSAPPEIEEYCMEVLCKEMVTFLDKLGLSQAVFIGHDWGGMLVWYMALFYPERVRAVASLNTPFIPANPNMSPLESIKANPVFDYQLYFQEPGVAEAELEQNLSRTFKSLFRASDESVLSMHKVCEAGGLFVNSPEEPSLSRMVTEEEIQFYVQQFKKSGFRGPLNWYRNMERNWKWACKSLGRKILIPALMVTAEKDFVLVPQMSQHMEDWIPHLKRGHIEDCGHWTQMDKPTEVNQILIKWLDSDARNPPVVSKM
Description: A fluorescent assay was employed for high throughput screening (HTS) of inhibitors of sEH. Cyano(2-methoxynaphthalen-6-yl)methyl trans-(3-phenyloxyran-2-yl)methyl carbonate (CMNPC) was used as the fluorescent substrate. Human sEH (1 nM) was incubated with a compound of Formula I for 5 min in pH 7.0 Bis-Tris/HCl buffer (25 mM) containing 0.1 mg/mL of BSA at 30° C. prior to substrate introduction ([S]=5 μM). […] IC50 values are the average of the three replicates with at least two datum points above and at least two below the IC50.

[2] = In vitro human liver microsomal metabolic stability (Example 4); assay type: in vitro ADME; conditions: for CLint scaled / half-life: pooled human liver microsomes; for CLint scaled: apparent intrinsic clearance, human liver microsomes; for half-life: half life in human liver microsomes, averages of duplicate determination, read-out: hLM t1/2
Description: The stability of sEH inhibitors in a human liver microsomal assay was determined as a predictor of in vivo oxidative metabolism. Microsomal stability was assessed in pooled human liver microsomes (Celsis, Edison, N.J.). All reactions were carried out for 90 min at 37° C. in an NADPH-generating system consisting of glucose 6-phosphate, glucose 6-phosphate dehydrogenase, and NADP^+ (Sigma, St. Louis, Mo.). Positive control incubations proceeded with 7-ethoxycoumarin as the substrate. Reactions were terminated by adding methanol. The mixtures were centrifuged and the supernatants were evaporated. The residues were reconstituted in mobile phase (85% ACN; 15% H2O) and subjected to LC/MS analysis.

Human sEH [3] = biological target: T1, Human sEH; assay: biochemical; conditions: Table 1

SMILES	IC50 (Human sEH [1]) [µM]	further results
Cc1ccc(S(=O)(=O)N2CCC(C(=O)N[C@@H]3C[C@H]3c3ccccc3)CC2)c(C)c1 [Compound 7-3]	0.0052	CLint scaled [2]: 90 mL/min/kg; half-life [2]: 14 min
Cc1ccc(S(=O)(=O)N2CCC(C(=O)NC3CCCCC3)CC2)c(C)c1 [Compound 7-6]	–	CLint scaled [2]: 90 mL/min/kg; half-life [2]: 14 min
Cc1ccc(S(=O)(=O)N2CCC(C(=O)NC3CCCc4ccccc43)CC2)c(C)c1 (centres unmarked) [Compound 7-8]	0.0006	–
Cc1ccc(S(=O)(=O)N2CCC(C(=O)NCC3CCCCC3)CC2)c(C)c1 [Compound 7-9]	–	CLint scaled [2]: 520 mL/min/kg; half-life [2]: 2.4 min
Cc1ccc(S(=O)(=O)N2CCC(C(=O)NC34CC5CC(CC(C5)C3)C4)CC2)c(C)c1 [Compound 7-11]	0.0085	CLint scaled [2]: 340 mL/min/kg; half-life [2]: 3.7 min
Cc1ccc(S(=O)(=O)N2CCC(C(=O)Nc3ccccc3)CC2)c(C)c1 [Compound 7-12]	0.023	–
Cc1ccc(S(=O)(=O)N2CCC(C(=O)Nc3ccccc3F)CC2)c(C)c1 [Compound 7-13]	0.02	–
Cc1ccc(S(=O)(=O)N2CCC(C(=O)Nc3ccccc3Cl)CC2)c(C)c1 [Compound 7-14]	0.25	–
Cc1ccc(S(=O)(=O)N2CCC(C(=O)Nc3ccccc3Br)CC2)c(C)c1 [Compound 7-15]	0.03	–
Cc1ccc(S(=O)(=O)N2CCC(C(=O)Nc3ccccc3C)CC2)c(C)c1 [Compound 7-16]	0.64	–
Cc1ccc(S(=O)(=O)N2CCC(C(=O)Nc3ccccc3O)CC2)c(C)c1 [Compound 7-17]	2.2	–
Cc1ccc(S(=O)(=O)N2CCC(C(=O)Nc3ccc(O)cc3)CC2)c(C)c1 [Compound 7-19]	0.055	–
Cc1ccc(S(=O)(=O)N2CCC(C(=O)Nc3ccc(Oc4ccccc4)cc3)CC2)c(C)c1 [Compound 7-20]	0.006	CLint scaled [2]: 120 mL/min/kg; half-life [2]: 11 min
COC(=O)c1ccc(NC(=O)C2CCN(S(=O)(=O)c3ccc(C)cc3C)CC2)cc1 [Compound 7-21]	0.013	–
Cc1ccc(S(=O)(=O)N2CCC(C(=O)Nc3ccc(C(=O)O)cc3)CC2)c(C)c1 [Compound 7-22]	0.11	–
Cc1ccc(S(=O)(=O)N2CCC(C(=O)Nc3ccc(OC(F)(F)F)cc3)CC2)c(C)c1 [Compound 7-23]	0.0052	CLint scaled [2]: 28 mL/min/kg; half-life [2]: 46 min
Cc1ccc(S(=O)(=O)N2CCC(C(=O)Nc3ccc([N+](=O)[O-])cc3)CC2)c(C)c1 [Compound 7-24]	0.0046	CLint scaled [2]: 7 mL/min/kg; half-life [2]: 180 min
Cc1ccc(S(=O)(=O)N2CCC(C(=O)Nc3ccc(N4CCCCC4)cc3)CC2)c(C)c1 [Compound 7-25]	0.029	in vitro metabolic stability in human liver microsomes, in words [2]: intermediate metabolic profiles
Cc1ccc(S(=O)(=O)N2CCC(C(=O)Nc3ccc(N4CCCCC4)c(C(N)=O)c3)CC2)c(C)c1 [Compound 7-26]	0.102	in vitro metabolic stability in human liver microsomes, in words [2]: intermediate metabolic profiles
Cc1ccc(S(=O)(=O)N2CCC(C(=O)Nc3ccc(N4CCOCC4)cc3)CC2)c(C)c1 [Compound 7-27]	0.041	–

SMILES	IC50 (Human sEH [1]) [µM]	further results
Cc1ccc(S(=O)(=O)N2CCC(C(=O)Nc3ccc(C(C)C)cc3)CC2)c(C)c1 [Compound 7-28]	0.0028	–
Cc1ccc(S(=O)(=O)N2CCC(C(=O)Nc3ccc(C(F)(F)F)cc3)CC2)c(C)c1 [Compound 7-29]	0.0069	–
Cc1ccc(S(=O)(=O)N2CCC(C(=O)Nc3ccc(S(=O)(=O)C(F)(F)F)cc3)CC2)c(C)c1 [Compound 7-30]	0.0087	–
Cc1ccc(S(=O)(=O)N2CCC(C(=O)Nc3cccc(C(F)(F)F)c3)CC2)c(C)c1 [Compound 7-31]	0.02	–
Cc1ccc(S(=O)(=O)N2CCC(C(=O)Nc3ccc(F)cc3)CC2)c(C)c1 [Compound 7-32]	0.025	–
Cc1ccc(S(=O)(=O)N2CCC(C(=O)Nc3ccc(Cl)cc3)CC2)c(C)c1 [Compound 7-33]	0.02	–
Cc1ccc(S(=O)(=O)N2CCC(C(=O)Nc3ccc(Br)cc3)CC2)c(C)c1 [Compound 7-34]	0.017	–
Cc1ccc(S(=O)(=O)N2CCC(C(=O)Nc3cc(Cl)cc(Cl)c3)CC2)c(C)c1 [Compound 7-35]	0.012	–
Cc1ccc(S(=O)(=O)N2CCC(C(=O)Nc3ccc(Cl)c(C(F)(F)F)c3)CC2)c(C)c1 [Compound 7-36]	0.043	–
Cc1ccc(S(=O)(=O)N2CCC(C(=O)Nc3ccc(Cl)c(Cl)c3)CC2)c(C)c1 [Compound 7-37]	0.0067	CLint scaled [2]: 50 mL/min/kg; half-life [2]: 25 min
Cc1ccc(S(=O)(=O)N2CCC(C(=O)Nc3ccc4ccccc4c3)CC2)c(C)c1 [Compound 7-38]	0.0016	CLint scaled [2]: 35 mL/min/kg; half-life [2]: 36 min
Cc1ccc(S(=O)(=O)N2CCC(C(=O)Nc3cnc4ccccc4c3)CC2)c(C)c1 [Compound 7-40]	0.045	–
Cc1ccc(S(=O)(=O)N2CCC(C(=O)Nc3ccc4ncccc4c3)CC2)c(C)c1 [Compound 7-41]	0.078	–
COC(=O)c1ccc2cc(NC(=O)C3CCN(S(=O)(=O)c4ccc(C)cc4C)CC3)ccc2c1 [Compound 7-43]	0.0023	–
Cc1ccc(S(=O)(=O)N2CCC(C(=O)Nc3ccc4cc(C(=O)O)ccc4c3)CC2)c(C)c1 [Compound 7-44]	0.023	in vitro metabolic stability in human liver microsomes, in words [2]: excellent in vitro metabolic stability; CLint scaled [2]: 5.6 mL/min/kg; half-life [2]: 220 min
Cc1ccc(S(=O)(=O)N2CCC(C(=O)Nc3ccc4c(c3)OCO4)CC2)c(C)c1 [Compound 7-45]	0.0006	CLint scaled [2]: 35 mL/min/kg; half-life [2]: 36 min
Cc1ccc(S(=O)(=O)N2CCC(C(=O)NC34CC5CC(CC(C5)C3)C4)CC2)c(C)c1 [Compound 2535]	–	IC50 (Human sEH [3]): 0.0085 µM
Cc1ccc(S(=O)(=O)N2CCC(C(=O)NC3C[C@@H]3c3ccccc3)CC2)c(C)c1 (some centres unmarked) [Compound 2536]	–	IC50 (Human sEH [3]): 0.0052 µM
Cc1ccc(S(=O)(=O)N2CCC(C(=O)Nc3ccc4cc(C(=O)O)ccc4c3)CC2)c(C)c1 [Compound 2590]	–	IC50 (Human sEH [3]): 0.0232 µM
